Experiments:
PC-3 tumor-bearing mice [1] = test: Ex vivo biodistribution of 177Lu-labeled ligands in PC-3 tumor-bearing mice; conditions: 1 h pi, 100 µg [D-Phe6,Leu-NHEt13,des-Met14]Bombesin(6-14)
Method: SPECT/CT imaging was conducted using an MI Labs (Houten, The Netherlands) U-SPECT-II/CT scanner with a custom-made ultra-high sensitivity big mouse collimator (2 mm pinhole size) following published procedure. The experiments were obtained in accordance with the same protocol established in the PET/CT imaging and ex vivo biodistributions section. The mice were used for SPECT/CT imaging and ex vivo biodistributions studies once the tumors reached a diameter of 5–8 mm. PC-3 tumor-bearing mice were sedated (2.5% isoflurane in O2) and injected with 31.4–36.9 MBq of the ^177Lu-labeled ligand through a lateral caudal tail vein. The mouse was imaged at 1, 4, 24, 72, and 120 h pi. At each time point, a 5 min CT scan was performed with 615 μA and 60 kV parameters for localization and attenuation, followed by two 30 min static SPECT scans in list mode with an energy window centered around 208 keV. The U-SPECT II software was used to reconstruct data, and the images were decay corrected to the time of injection with PMOD v 3.402 (PMOD Technologies GmbH, Fallanden, Switzerland).
For ex vivo biodistribution studies, the mice were injected with ~3–5 MBq of the ^177Lu-labeled ligand (n = 5). At 1, 4, 24, 72, and 120 h post-injection, the mice were anesthetized with 2% isoflurane, euthanized by CO2 inhalation, and the tissues/organs of interest were […] for radioactivity counting. The blocking study was performed at 1 h pi via co-injection of the ^177Lu-labeled ligand with 100 μg of [D-Phe^6,Leu-NHEt^13,des-Met^14]Bombesin(6–14).

GRPR = biological target: T1, GRPR (Homo sapiens, UniProt P30550); test: Fluorometric intracellular calcium release assay using PC-3 cells; type: cell-based; conditions: for intracellular calcium release: 50 nM ligand, n = 4
T1 construct: host or cells: PC-3 cells
Method: The agonist/antagonist characteristics of LW02060, Ga-LW02060, Lu-LW02060, LW02080, Ga-LW02080, and Lu-LW02080 were determined following published procedures. The PC-3 cells were obtained from ATCC (via Cedarlane, Burlington, ON, Canada). A 96-well clear bottom black plate was seeded with 5 × 10^4 PC-3 cells in 100 μL growth media per well 24 h before the assay. The loading buffer (100 μL/well) containing a calcium-sensitive dye (FLIPR Calcium 6 assay kit from Molecular Devices, San Jose, CA, USA) was added into the 96-well plate, followed by 1 h incubation at 37 °C. The plate was then transferred into a FlexStation 3 microplate reader (Molecular Devices, San Jose, CA, USA). LW02060 (50 nM), Ga-LW02060 (50 nM), Lu-LW02060 (50 nM), LW02080 (50 nM), Ga-LW02080 (50 nM), Lu-LW02080 (50 nM), [D-Phe^6,Leu-NHEt^13,des-Met^14]Bombesin(6–14) (50 nM, antagonist control), bombesin (50 nM, agonist control), adenosine triphosphate (ATP, 50 nM, positive control), or DPBS (blank control) was added, and the fluorescent signals were measured for 2 min (λEx = 485 nm; λEm = 525 nm; n = 4). The relative fluorescent units (RFU = max − min) were calculated to determine the agonistic/antagonistic characteristics of LW02060, Ga-LW02060, Lu-LW02060, LW02080, Ga-LW02080, and Lu-LW02080, respectively.

PC-3 tumor-bearing mice [2] = test: Ex vivo biodistribution of 68Ga-labeled tracers in PC-3 tumor-bearing mice; conditions: 1 h pi; for reduction of average tumor uptake by co-injection of blocking agent: 100 µg blocking agent
Method: PET/CT imaging and biodistribution studies were conducted using male NOD.Cg-Rag1^tm1Mom Il2rg^tm1Wjl/SzJ (NRG) mice following previously published procedures. The studies were carried out in compliance with the guidelines established by the Canadian Council on Animal Care and approved by Animal Ethics Committee of the University of British Columbia (protocol number A20-0113, approved on 30 September 2022). The mice were anaesthetized and subcutaneously implanted with 5 × 10^6 PC-3 cells (100 µL; 1:1 PBS/Matrigel) behind the left shoulder. PET/CT imaging and biodistribution studies were performed once the tumors reached a diameter of 5–8 mm, typically after approximately 4 weeks of growth.
For ex vivo biodistribution studies, the mice were injected with the ^68Ga-labeled tracer (2–4 MBq) via a lateral caudal tail vein. For blocking [^68Ga]Ga-LW02060, the mice were co-injected with 100 μg of [D-Phe^6,Leu-NHEt^13,des-Met^14]Bombesin(6–14). For blocking [^68Ga]Ga-LW02080, the mice were co-injected with 100 μg of its nonradioactive standard Ga-LW02080. At 1 h pi, the mice were euthanized by CO2 inhalation. Blood and organs/tissues of interest were collected, weighed, and counted using a gamma counter.

[3] = In vivo stability study (radio-HPLC of plasma and urine); conditions: NRG mice, 15 min pi; for remaining intact in plasma: n = 3
Method: For in vivo stability studies, [^68Ga]Ga-LW02060 or [^68Ga]Ga -LW02080 (5.23–12.9 MBq) was injected into healthy male NRG mice (n = 3) tough a lateral caudal tail vein. At 15 min pi, mice were anaesthetized and euthanized, followed by collection of the urine and blood samples. The plasma was extracted from whole blood by adding an equal volume of CH3CN, followed by vortexing, centrifugation, and collection of the supernatant. The plasma and urine samples were analyzed via radio-HPLC.

T1 sequence (P30550 whole entry): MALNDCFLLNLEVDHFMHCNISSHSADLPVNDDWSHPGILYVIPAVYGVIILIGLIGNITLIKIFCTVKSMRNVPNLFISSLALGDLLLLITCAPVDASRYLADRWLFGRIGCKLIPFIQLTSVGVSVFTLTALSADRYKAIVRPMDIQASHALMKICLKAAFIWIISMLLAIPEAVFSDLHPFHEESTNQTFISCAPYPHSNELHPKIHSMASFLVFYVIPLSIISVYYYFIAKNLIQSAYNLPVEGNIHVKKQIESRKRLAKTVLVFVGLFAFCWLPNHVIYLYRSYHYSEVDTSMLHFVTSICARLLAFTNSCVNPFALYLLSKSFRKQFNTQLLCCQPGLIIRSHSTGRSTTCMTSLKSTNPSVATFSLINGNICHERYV

intracellular calcium release (GRPR) | uptake in all other collected organs/tissues (except tumor xenografts and kidneys) (PC-3 tumor-bearing mice [2]) | intact tracer in urine [3] | remaining intact in plasma [3] | Compound | reduction of tumor uptake by co-injection of blocking agent (PC-3 tumor-bearing mice [1]) | reduction of average tumor uptake by co-injection of blocking agent (PC-3 tumor-bearing mice [2]) | also measured
 |  |  |  | CC(C)C[C@H](NC(=O)[C@H](Cc1cnc[nH]1)N(C)C(=O)CNC(=O)[C@@H](NC(=O)[C@H](C)NC(=O)[C@H](Cc1c[nH]c2ccccc12)NC(=O)[C@H](CCC(N)=O)NC(=O)[C@@H](Cc1ccccc1)NC(=O)CN1CCC(NC(=O)CN2CCN(CC(=O)O)CCN(CC(=O)O)CCN(CC(=O)O)CC2)CC1)C(C)(C)C)C(=O)N1CC(F)(F)C[C@H]1C(N)=O [[^177Lu]Lu-LW02060] [metal not drawn] | 66% |  | reduction of pancreas uptake by co-injection of blocking agent (PC-3 tumor-bearing mice [1]): 81%; reduction of small intestine uptake by co-injection of blocking agent (PC-3 tumor-bearing mice [1]): 66%; reduction of stomach uptake by co-injection of blocking agent (PC-3 tumor-bearing mice [1]): 72%
371 ± 17.9 RFU |  |  |  | bombesin [reference compound] |  |  | 
377 ± 41.9 RFU |  |  |  | DOTA-Pip-[D-Phe^6,Tle^10,NMe-His^12,diF-Pro^14]Bombesin(6–14) [LW02060] |  |  | agonist/antagonist characteristics (GRPR): GRPR agonists
 |  |  |  | CC(C)C[C@@H](CN1CC(F)(F)C[C@H]1C(N)=O)NC(=O)[C@H](Cc1c[nH]cn1)NC(=O)CN(C)C(=O)[C@@H](NC(=O)[C@H](C)NC(=O)[C@H](Cc1c[nH]c2ccccc12)NC(=O)[C@H](CCC(N)=O)NC(=O)[C@@H](Cc1ccccc1)NC(=O)CN1CCC(NC(=O)CN2CCN(CC(=O)O)CCN(CC(=O)O)CCN(CC(=O)O)CC2)CC1)C(C)C [[^177Lu]Lu-LW02080] [metal not drawn] | 64% |  | 
 | lower than 1 %ID/g | No intact tracer was detected | 87.4 ± 5.34% | CC(C)C[C@@H](CN1CC(F)(F)C[C@H]1C(N)=O)NC(=O)[C@H](Cc1c[nH]cn1)NC(=O)CN(C)C(=O)[C@@H](NC(=O)[C@H](C)NC(=O)[C@H](Cc1c[nH]c2ccccc12)NC(=O)[C@H](CCC(N)=O)NC(=O)[C@@H](Cc1ccccc1)NC(=O)CN1CCC(NC(=O)CN2CCN(CC(=O)O)CCN(CC(=O)O)CCN(CC(=O)O)CC2)CC1)C(C)C [[^68Ga]Ga-LW02080] [metal not drawn] |  | 77% | 
 | lower than 1 %ID/g | No intact tracer was detected | > 99% | CC(C)C[C@H](NC(=O)[C@H](Cc1cnc[nH]1)N(C)C(=O)CNC(=O)[C@@H](NC(=O)[C@H](C)NC(=O)[C@H](Cc1c[nH]c2ccccc12)NC(=O)[C@H](CCC(N)=O)NC(=O)[C@@H](Cc1ccccc1)NC(=O)CN1CCC(NC(=O)CN2CCN(CC(=O)O)CCN(CC(=O)O)CCN(CC(=O)O)CC2)CC1)C(C)(C)C)C(=O)N1CC(F)(F)C[C@H]1C(N)=O [[^68Ga]Ga-LW02060] [metal not drawn] |  | 64% | tumor uptake relative to [68Ga]Ga-LW02080 (PC-3 tumor-bearing mice [2]): 2.3 fold; tumor uptake relative to previously reported [68Ga]Ga-LW02056 (PC-3 tumor-bearing mice [2]): 1.9 fold

From publication PMC11859184, “Synthesis and Evaluation of ^68Ga- and ^177Lu-Labeled [diF-Pro^14]Bombesin(6−14) Analogs for Detection and Radioligand Therapy of Gastrin-Releasing Peptide Receptor-Expressing Cancer” (Pharmaceuticals, 2025)
